Results from US6583175B2, “Alkylxanthates and use of alkylxanthates in the integrated pest management” (Council of Scientific & Industrial Research, priority 2001, dated 2003).
Values after ≈ are worked out from the molar mass of the structure shown.

Key:
[1] = tested on: Aedes aegypti mosquito; conditions: various aquatic stages of Aedes aegypti; cited from earlier work
[2] = tested on: Spodoptera litura; test: Antifeedant activity against late third instar of Spodoptera litura (leaf disk, oral feeding); type: in vivo
[3] = in vivo; conditions: Artemia salina (brine shrimp), other: exposure in artificial seawater in the sample vial

## CC(C)COC(=S)SCCSC(=S)OCC(C)C [Ethylene bis (isobutylxanthate), Ethylene Bis (isobutylxanthate)]
[1]
  larvicidal and insect growth regulatory activity: larvicidal and insect growth regulatory activity in dose dependent mannar
[2]; 20 μg/sq. cm.
  A.I. (Anti-feedent Index): 8.14
  Percent leaf consumption 12 hr: 60.2%
  Percent leaf consumption 24 hr: 80.7%
[2]; 35 μg/sq. cm.
  A.I. (Anti-feedent Index): 20.48
  Percent leaf consumption 12 hr: 36.1%
  Percent leaf consumption 24 hr: 62.7%
[2]; 50 μg/sq. cm.
  A.I. (Anti-feedent Index): 34.85
  Percent leaf consumption 12 hr: 22.4%
  Percent leaf consumption 24 hr: 45.9%
[2]; 65 μg/sq. cm.
  A.I. (Anti-feedent Index): 58.07
  Percent leaf consumption 12 hr: 9.3%
  Percent leaf consumption 24 hr: 25.2%
[2]; late third instar
  Concentration required for 50% leaf protection EC50 ± S.E.: 42.46 ± 5.76 μg/cm^2
[3]
  LC50 at 24 h: 25.8 ± 2.9 µg/mL (≈ 78.9 µM)
